In brackets after ≈: the same amount, converted by molar mass. Where a SMILES comes first, the peptide text is derived from it. Bridges are numbered along the chain shown (N, C = ends). Roman numbers before positions name the chains, in order. Side-chain parts run from the residue outwards. The star is where a group is joined. X3 = CC(=O)N[C@@H](CC(C)C)C(=O)NCCCC[C@H](NC(=O)[C@H](CC(C)C)NC(C)=O)C(=O)*; LeuLys(Leu) = CC(C)C[C@H](N)C(=O)NCCCC[C@H](NC(=O)[C@@H](N)CC(C)C)C(=O)*; X4 = C[C@H](N)C(=O)NCCCC[C@H](NC(=O)[C@H](C)N)C(=O)*
Experiments:
Pseudomonas aeruginosa [1] = experiment: Antibacterial activity against Pseudomonas aeruginosa PAO1 after 18 to 24 hrs by broth microdilution assay; assay type: functional
Escherichia coli [2] = experiment: Antibacterial activity against Escherichia coli DH5[alpha] after 18 to 24 hrs by broth microdilution assay; assay type: functional
[3] = Hemolytic activity in human RBC after 4 hrs; assay type: ADME, cell-based; details: erythrocyte
Bacillus subtilis = experiment: Antibacterial activity against Bacillus subtilis BR151 after 18 to 24 hrs by broth microdilution assay; assay type: functional
Enterococcus faecalis [4] = experiment: Antibacterial activity against Enterococcus faecalis Van BE80-8 by broth microdilution assay; assay type: functional
Pseudomonas aeruginosa [5] = experiment: Antibacterial activity against Pseudomonas aeruginosa PAO1 HS by broth microdilution assay; assay type: functional
Pseudomonas aeruginosa [6] = experiment: Antibacterial activity against Pseudomonas aeruginosa K799/61 by broth microdilution assay; assay type: functional
Pseudomonas aeruginosa [7] = experiment: Antibacterial activity against Pseudomonas aeruginosa 8S/H by broth microdilution assay; assay type: functional
Staphylococcus aureus [8] = experiment: Antibacterial activity against methicillin-resistant Staphylococcus aureus 42080 by broth microdilution assay; assay type: functional
Escherichia coli [9] = experiment: Antibacterial activity against Escherichia coli ATCC 25922 by broth microdilution assay; assay type: functional
Pseudomonas aeruginosa [10] = experiment: Antibacterial activity against Pseudomonas aeruginosa ATCC 27853 by broth microdilution assay; assay type: functional
Enterococcus faecalis [11] = experiment: Antibacterial activity against Enterococcus faecalis ATCC 29212 by broth microdilution assay; assay type: functional
Staphylococcus aureus [12] = experiment: Antibacterial activity against Staphylococcus aureus ATCC 29213 by broth microdilution assay; assay type: functional
Pseudomonas aeruginosa [13] = experiment: Antibacterial activity against Pseudomonas aeruginosa K799/WT by broth microdilution assay; assay type: functional

Row | Compound | MIC (Pseudomonas aeruginosa [1]) [µg/mL] | MIC (Escherichia coli [2]) [µg/mL] | MIC (Bacillus subtilis) [µg/mL] | MHC [3] [µg/mL] | MIC (Enterococcus faecalis [4]) [µg/mL] | MIC (Pseudomonas aeruginosa [5]) [µg/mL] | MIC (Pseudomonas aeruginosa [6]) [µg/mL] | MIC (Pseudomonas aeruginosa [7]) [µg/mL] | MIC (Staphylococcus aureus [8]) [µg/mL] | MIC (Escherichia coli [9]) [µg/mL] | MIC (Pseudomonas aeruginosa [10]) [µg/mL] | MIC (Enterococcus faecalis [11]) [µg/mL] | MIC (Staphylococcus aureus [12]) [µg/mL] | MIC (Pseudomonas aeruginosa [13]) [µg/mL]
1 | CC(=O)N[C@@H](CC(C)C)C(=O)NCCCC[C@H](NC(=O)[C@H](CC(C)C)NC(C)=O)C(=O)N[C@@H](Cc1ccccc1)C(=O)NCCCC[C@H](NC(=O)[C@H](Cc1ccccc1)NC(=O)[C@H](CCCCNC(=O)[C@H](CC(C)C)NC(C)=O)NC(=O)[C@H](CC(C)C)NC(C)=O)C(=O)N1CCC[C@H]1C(=O)NCCCC[C@H](NC(=O)[C@@H]1CCCN1C(=O)[C@H](CCCCNC(=O)[C@H](Cc1ccccc1)NC(=O)[C@H](CCCCNC(=O)[C@H](CC(C)C)NC(C)=O)NC(=O)[C@H](CC(C)C)NC(C)=O)NC(=O)[C@H](Cc1ccccc1)NC(=O)[C@H](CCCCNC(=O)[C@H](CC(C)C)NC(C)=O)NC(=O)[C@H](CC(C)C)NC(C)=O)C(=O)N[C@@H](CCCCN)C(N)=O (I: Ac-LK([Leu-Ac])FK([Phe-X3])PKK-NH2 / II: Ac-LK([Leu-Ac])FK([Phe-X3])P; amide I:6-II:C) | – | – | – | – | > 32 | > 32 | > 32 | > 32 | > 32 | > 32 | > 32 | > 32 | > 32 | > 32
2 | CC(=O)N[C@@H](CC(C)C)C(=O)NCCCC[C@H](NC(=O)[C@H](CC(C)C)NC(C)=O)C(=O)N[C@@H](CC(C)C)C(=O)NCCCC[C@H](NC(=O)[C@H](CC(C)C)NC(=O)[C@H](CCCCNC(=O)[C@H](CC(C)C)NC(C)=O)NC(=O)[C@H](CC(C)C)NC(C)=O)C(=O)N[C@@H](Cc1ccccc1)C(=O)NCCCC[C@H](NC(=O)[C@H](Cc1ccccc1)NC(=O)[C@H](CCCCNC(=O)[C@H](CC(C)C)NC(=O)[C@H](CCCCNC(=O)[C@H](CC(C)C)NC(C)=O)NC(=O)[C@H](CC(C)C)NC(C)=O)NC(=O)[C@H](CC(C)C)NC(=O)[C@H](CCCCNC(=O)[C@H](CC(C)C)NC(C)=O)NC(=O)[C@H](CC(C)C)NC(C)=O)C(=O)N[C@@H](CCCCN)C(N)=O (I: Ac-LK([Leu-Ac])LK([Leu-X3])FKK-NH2 / II: Ac-LK([Leu-Ac])LK([Leu-X3])F; amide I:6-II:C) | – | – | – | – | > 32 | > 32 | > 32 | > 32 | > 32 | > 32 | > 32 | > 32 | > 32 | > 32
3 | CC(C)C[C@@H](N)C(=O)NCCCC[C@H](NC(=O)[C@H](N)CC(C)C)C(=O)N[C@H](Cc1ccccc1)C(=O)NCCCC[C@H](NC(=O)[C@@H](Cc1ccccc1)NC(=O)[C@H](CCCCNC(=O)[C@H](N)CC(C)C)NC(=O)[C@H](N)CC(C)C)C(=O)N1CCC[C@@H]1C(=O)NCCCC[C@H](NC(=O)[C@H]1CCCN1C(=O)[C@H](CCCCNC(=O)[C@@H](Cc1ccccc1)NC(=O)[C@H](CCCCNC(=O)[C@H](N)CC(C)C)NC(=O)[C@H](N)CC(C)C)NC(=O)[C@@H](Cc1ccccc1)NC(=O)[C@H](CCCCNC(=O)[C@H](N)CC(C)C)NC(=O)[C@H](N)CC(C)C)C(=O)N[C@H](CCCCN)C(N)=O | 60 (≈ 22 µM) | 11 (≈ 4.03 µM) | 4.4 (≈ 1.61 µM) | > 10000 | – | – | – | – | – | – | – | – | – | –
4 | CC(C)C[C@H](NC(=O)[C@H](CCCCNC(=O)[C@H](C)N)NC(=O)[C@H](C)N)C(=O)NCCCC[C@H](NC(=O)[C@H](CC(C)C)NC(=O)[C@H](CCCCNC(=O)[C@H](C)N)NC(=O)[C@H](C)N)C(=O)N[C@@H](Cc1ccccc1)C(=O)NCCCC[C@H](NC(=O)[C@H](Cc1ccccc1)NC(=O)[C@H](CCCCNC(=O)[C@H](CC(C)C)NC(=O)[C@H](CCCCNC(=O)[C@H](C)N)NC(=O)[C@H](C)N)NC(=O)[C@H](CC(C)C)NC(=O)[C@H](CCCCNC(=O)[C@H](C)N)NC(=O)[C@H](C)N)C(=O)N[C@@H](CCCCN)C(N)=O (I: H-AK(Ala)LK([Leu-X4])FKK-NH2 / II: H-AK(Ala)LK([Leu-X4])F; amide I:6-II:C) | 67 (≈ 28.4 µM) | > 100 | > 100 | 1000 | – | – | – | – | – | – | – | – | – | –

Second part, led by results:

Row | MIC (Pseudomonas aeruginosa [1]) [µg/mL] | MIC (Escherichia coli [2]) [µg/mL] | MIC (Bacillus subtilis) [µg/mL] | Compound | MHC [3] [µg/mL] | MIC (Enterococcus faecalis [4]) [µg/mL] | MIC (Pseudomonas aeruginosa [5]) [µg/mL] | MIC (Pseudomonas aeruginosa [6]) [µg/mL] | MIC (Pseudomonas aeruginosa [7]) [µg/mL] | MIC (Staphylococcus aureus [8]) [µg/mL] | MIC (Escherichia coli [9]) [µg/mL] | MIC (Pseudomonas aeruginosa [10]) [µg/mL] | MIC (Enterococcus faecalis [11]) [µg/mL] | MIC (Staphylococcus aureus [12]) [µg/mL] | MIC (Pseudomonas aeruginosa [13]) [µg/mL]
5 | > 100 | > 100 | 67 (≈ 26.5 µM) | CC(C)C[C@H](N)C(=O)NCCCC[C@H](NC(=O)[C@@H](N)CC(C)C)C(=O)N[C@@H](C)C(=O)NCCCC[C@H](NC(=O)[C@H](C)NC(=O)[C@H](CCCCNC(=O)[C@@H](N)CC(C)C)NC(=O)[C@@H](N)CC(C)C)C(=O)N[C@@H](Cc1ccccc1)C(=O)NCCCC[C@H](NC(=O)[C@H](Cc1ccccc1)NC(=O)[C@H](CCCCNC(=O)[C@H](C)NC(=O)[C@H](CCCCNC(=O)[C@@H](N)CC(C)C)NC(=O)[C@@H](N)CC(C)C)NC(=O)[C@H](C)NC(=O)[C@H](CCCCNC(=O)[C@@H](N)CC(C)C)NC(=O)[C@@H](N)CC(C)C)C(=O)N[C@@H](CCCCN)C(N)=O (I: H-LK(Leu)AK([Ala-LeuLys(Leu)])FKK-NH2 / II: H-LK(Leu)AK([Ala-LeuLys(Leu)])F; amide I:6-II:C) | > 2000 | – | – | – | – | – | – | – | – | – | –
6 | 60 (≈ 22.3 µM) | 15 (≈ 5.57 µM) | 2.5 (≈ 0.928 µM) | CC(C)C[C@@H](N)C(=O)NCCCC[C@H](NC(=O)[C@H](N)CC(C)C)C(=O)N[C@H](CC(C)C)C(=O)NCCCC[C@H](NC(=O)[C@@H](CC(C)C)NC(=O)[C@H](CCCCNC(=O)[C@H](N)CC(C)C)NC(=O)[C@H](N)CC(C)C)C(=O)N[C@H](Cc1ccccc1)C(=O)NCCCC[C@H](NC(=O)[C@@H](Cc1ccccc1)NC(=O)[C@H](CCCCNC(=O)[C@@H](CC(C)C)NC(=O)[C@H](CCCCNC(=O)[C@H](N)CC(C)C)NC(=O)[C@H](N)CC(C)C)NC(=O)[C@@H](CC(C)C)NC(=O)[C@H](CCCCNC(=O)[C@H](N)CC(C)C)NC(=O)[C@H](N)CC(C)C)C(=O)N[C@H](CCCCN)C(N)=O | > 10000 | – | – | – | – | – | – | – | – | – | –
7 | ≥ 100 | 15 (≈ 5.69 µM) | 2 (≈ 0.758 µM) | CC(C)C[C@H](NC(=O)[C@H](CCCCNC(=O)[C@@H](N)CC(C)C)NC(=O)[C@@H](N)CC(C)C)C(=O)NCCCC[C@H](NC(=O)[C@H](CC(C)C)NC(=O)[C@H](CCCCNC(=O)[C@@H](N)CC(C)C)NC(=O)[C@@H](N)CC(C)C)C(=O)N[C@@H](Cc1ccccc1)C(=O)NCCCC[C@H](NC(=O)[C@H](Cc1ccccc1)NC(=O)[C@H](CCCCNC(=O)[C@H](CC(C)C)NC(=O)[C@H](CCCCNC(=O)[C@@H](N)CC(C)C)NC(=O)[C@@H](N)CC(C)C)NC(=O)[C@H](CC(C)C)NC(=O)[C@H](CCCCNC(=O)[C@@H](N)CC(C)C)NC(=O)[C@@H](N)CC(C)C)C(=O)N[C@@H](C)C(N)=O (I: H-LK(Leu)LK([Leu-LeuLys(Leu)])FKA-NH2 / II: H-LK(Leu)LK([Leu-LeuLys(Leu)])F; amide I:6-II:C) | 31 | – | – | – | – | – | – | – | – | – | –
8 | 67 (≈ 26.4 µM) | > 100 | 4.5 (≈ 1.77 µM) | CC(C)C[C@H](NC(=O)[C@H](CCCCNC(=O)[C@@H](N)CC(C)C)NC(=O)[C@@H](N)CC(C)C)C(=O)NCCCC[C@H](NC(=O)[C@H](CC(C)C)NC(=O)[C@H](CCCCNC(=O)[C@@H](N)CC(C)C)NC(=O)[C@@H](N)CC(C)C)C(=O)N[C@@H](C)C(=O)NCCCC[C@H](NC(=O)[C@H](C)NC(=O)[C@H](CCCCNC(=O)[C@H](CC(C)C)NC(=O)[C@H](CCCCNC(=O)[C@@H](N)CC(C)C)NC(=O)[C@@H](N)CC(C)C)NC(=O)[C@H](CC(C)C)NC(=O)[C@H](CCCCNC(=O)[C@@H](N)CC(C)C)NC(=O)[C@@H](N)CC(C)C)C(=O)N[C@@H](CCCCN)C(N)=O (I: H-LK(Leu)LK([Leu-LeuLys(Leu)])AKK-NH2 / II: H-LK(Leu)LK([Leu-LeuLys(Leu)])A; amide I:6-II:C) | > 2000 | – | – | – | – | – | – | – | – | – | –

Reference: ChEMBL document CHEMBL3217499, “Membrane disrupting antimicrobial peptide dendrimers with multiple amino termini” (Medchemcomm, 2012)
